Laboratory results as given in PubChem BioAssay AID588780 (Sanford-Burnham Center for Chemical Genomics, 2011).
The source made the active and inactive calls.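 How the source made its calls: active means compounds whose fitted half-maximal concentration in the cell-protection dose series is at or below a set limit; inactive means the rest.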

test system: H9c2 cardiomyocytes, 2-deoxyglucose stress, ATP luminescence, 2 h; assay: protection of cardiomyocytes from 2-deoxyglucose injury, dose response, cell-based, 2-deoxyglucose stress, uHTS hits (AID 588780)

SMILES	IC50
O=C(CSc1nnc(Cc2cccs2)n1CCc1ccccc1)N1CCCc2ccccc21	> 79 µM (inactive)
CC1(C)Oc2ccc3ccc(=O)oc3c2/C(=C/Nc2ccccn2)C1=O	10.2 µM
COc1ccccc1NC(=O)c1cc(-c2ccc(OC)c(OC)c2)nc2ccccc12	> 79 µM (inactive)
CC(=O)N1CCN(c2ccccc2NC(=O)c2ccc(-c3cccc([N+](=O)[O-])c3)o2)CC1	5.88 µM
O=C(Cn1[nH]c(=O)c2ccccc2c1=O)N1CCN(S(=O)(=O)c2ccc(Cl)cc2)CC1	> 79 µM (inactive)
COc1ccc(NCc2cc3cc(OC)ccc3[nH]c2=O)cc1	> 79 µM (inactive)
CC1CCN(C(=O)COC(=O)c2n[nH]c(=O)c3ccccc23)CC1	47.8 µM (inactive)
O=C(NC1CCCCC1)C(c1ccc2ncccc2c1)N(Cc1ccco1)C(=O)c1ccc2c(c1)OCCO2 (centres undefined)	31.4 µM (inactive)
COc1ccc2[nH]c(=O)c(CN(CCc3ccccc3)Cc3nnnn3CC3CCCO3)cc2c1 (centres undefined)	> 79 µM (inactive)
Cc1nc(OCc2ccccc2)c2ccccc2n1	9.43 µM
Cc1ccc(CNC(=O)CCc2nc3ccccc3c(=O)[nH]2)cc1	13.9 µM
COc1ccc(-n2c(C)c(C(C)=O)c3cc(OC(C)=O)ccc32)cc1	25.2 µM
COc1cccc(-c2cnc3c(NC=O)cc(-c4cccc(C(=O)N(C)C)c4)cn23)c1	12.3 µM
O=C(OCc1nnc(-c2ccccc2)o1)c1ccc([N+](=O)[O-])s1	24.8 µM
COc1ccc(NC(=O)c2oc3ccc(S(=O)(=O)N4CCOCC4)cc3c2C)cc1	> 79 µM (inactive)
Cc1cccc(C(=O)NC(C(=O)Nc2nc(-c3ccccn3)cs2)C(C)C)c1 (centres undefined)	12.7 µM
O=C(CCc1nc2ccccc2c(=O)[nH]1)OCc1nnc(-c2ccccc2)o1	> 79 µM (inactive)
O=c1cc(COc2ncnc3c(Cl)cc(Cl)cc23)nc2sccn12	> 79 µM (inactive)
CCOC(=O)c1c2ccc(OCC(=O)N/N=C/c3ccc(C)cc3)cc2n2ccccc12	> 79 µM (inactive)
COc1cc(OC)c(-c2nn3c(-c4ccco4)nnc3s2)cc1OC	6.54 µM
CCN(C[C@H]1N[C@@](Cc2ccccc2)(C(=O)OC)[C@H]2C(=O)N(C)C(=O)[C@@H]12)S(=O)(=O)c1ccc(OC)cc1	37.2 µM (inactive)
CCOC(=O)C1=C(COC(=O)c2ccc([N+](=O)[O-])o2)NC(=O)NC1C (centres undefined)	> 79 µM (inactive)
CC(=O)c1ccc(-c2ccc(C(=O)Nc3nc(-c4ccccn4)cs3)o2)cc1	44.7 µM (inactive)
CC(C)COc1nc2ccccc2c(=O)n1OCC(=O)O	> 79 µM (inactive)

SMILES	IC50
COc1ccc(-c2oc(=O)c3cc(OC)c(OC)cc3c2C#CCCO)cc1	> 79 µM (inactive)
NC(=O)c1ccc(Nc2nnc(-c3ccc(O)cc3)c3ccccc23)cc1	29.6 µM
O=C(/C=C/c1ccc(Cl)c([N+](=O)[O-])c1)Nc1cccnc1	> 79 µM (inactive)
COc1cccc(NC(=O)CN(C)C(=O)CCCc2nc3ccccc3c(=O)[nH]2)c1	> 79 µM (inactive)
Cc1sc2nc(SCC(=O)NCc3ccco3)[nH]c(=O)c2c1C	> 79 µM (inactive)
N#C/C(=C\Nc1ccc2c(c1)OCCO2)c1nc2ccccc2[nH]1	> 79 µM (inactive)
CCCn1nc(C(=O)OCC(=O)c2c(N)n(C)c(=O)n(C)c2=O)c2ccccc2c1=O	56.6 µM (inactive)
O=c1cc(CSc2ccc([N+](=O)[O-])cc2)nc2sccn12	> 79 µM (inactive)
FC(F)(F)c1nnc2ccc(N3CCCC3)nn12	> 79 µM (inactive)
CCOC(=O)c1[nH]c2cc(OC)c(OC)cc2c1NC(=O)C(C)N1CCN(Cc2ccccc2)CC1 (centres undefined)	> 79 µM (inactive)
O=C(COc1ccc(F)cc1)N/N=C/c1cccc2cccnc12	> 79 µM (inactive)
COc1ccc(-c2ccc3c(c2)S(=O)(=O)c2cccc(C(=O)NC[C@@H]4CCCO4)c2C3=O)cc1OC	12.8 µM
O=C(NO)c1ccc(C(=O)N(C2CCCCC2)C2CCCCC2)cc1	> 79 µM (inactive)
COc1ccccc1-c1cc(C(=O)N/N=C/C=C/c2ccccc2[N+](=O)[O-])c2ccccc2n1	> 79 µM (inactive)
COc1cccc(-c2nnc(NC(=O)c3ccc(Cl)s3)o2)c1	> 79 µM (inactive)
O=C(CSc1nc2ccccc2o1)NCc1n[nH]c(=O)c2ccccc12	13.9 µM
COc1ccccc1CN(C)C(=O)c1cc(-c2cc(OC)c(OC)c(OC)c2)nc2ccccc12	6.57 µM
O=C1c2ccccc2NC(c2ccc(-c3cccc([N+](=O)[O-])c3)o2)N1O (centres undefined)	28.4 µM
COc1ccc(-c2cc(=O)oc3cc(OC(=O)C4CCCCC4)ccc23)cc1	31.7 µM (inactive)
N#C/C(=C1\CCCN1)c1nc2ccccc2c(=O)[nH]1	> 79 µM (inactive)
Cc1ccc(C(=O)CSc2nc3ccccc3c(=O)[nH]2)cc1	> 79 µM (inactive)
O=C1OCCN1C(=O)[C@H]1[C@H](c2ccc([N+](=O)[O-])cc2)C(c2ccccc2)=NN1c1ccc(Br)cc1	> 79 µM (inactive)
CCc1cc(C(=O)Nc2nc(-c3ccccn3)cs2)sc1C	> 79 µM (inactive)
COc1ccc2occ(C(=O)c3coc4ccc(O)c(CN(C)C)c34)c2c1	> 79 µM (inactive)

SMILES	IC50
O=C(COC(=O)CCc1nc2ccccc2c(=O)[nH]1)NC(c1ccccc1)c1ccccc1	> 79 µM (inactive)
CCN(CC(=O)Nc1ccc(OC)cc1)C(=O)CCc1nc2ccccc2c(=O)[nH]1	> 79 µM (inactive)
CC(=O)Nc1cccc(-c2cc(NC=O)c3ncc(-c4ccc(C(C)=O)cc4)n3c2)c1	> 79 µM (inactive)
O=C(COC(=O)Cn1[nH]c(=O)c2ccccc2c1=O)Nc1c(Cl)cccc1C(F)(F)F	> 79 µM (inactive)
COc1ccc(C(=O)Nc2nc(-c3ccccn3)cs2)cc1S(=O)(=O)N1CCOCC1	16.1 µM
CNC(=O)c1ccc(-c2sc3nc(N4CCOCC4)c4c(c3c2N)CCCC4)o1	> 79 µM (inactive)
Cc1ccc(N(CCC#N)C(=O)CSc2nc3ccccc3c(=O)[nH]2)cc1	> 79 µM (inactive)
O=C(Nc1ccc(CN2CCOCC2)cc1)c1ccc(-c2cccc([N+](=O)[O-])c2)o1	> 79 µM (inactive)
O=C(N/N=C\c1ccccn1)C1COc2cc3ccccc3cc2O1 (centres undefined)	8.87 µM
Cc1ccc2sc(NNC(=O)c3ccc4c(c3)OCCO4)nc2c1C	> 79 µM (inactive)
CN(C)CCCNc1ccc(-c2n[nH]c(=O)c3ccccc23)cc1[N+](=O)[O-]	> 79 µM (inactive)
O=C(NCc1n[nH]c(=O)c2ccccc12)C1CC(=O)N(c2ccccc2)C1 (centres undefined)	43 µM (inactive)
CCOC(=O)C1CCCN(C(=O)CCC(=O)Nc2ccc3nc(N4CCOCC4)cc(C)c3c2)C1 (centres undefined)	11 µM
Cc1ccc2cc(C#N)c(N3CCN(C(=O)c4cccs4)CC3)nc2c1	> 79 µM (inactive)
O=C(COC(=O)CCc1nc2ccccc2c(=O)[nH]1)NCc1ccc(F)cc1	> 79 µM (inactive)
CC(OC(=O)Cn1[nH]c(=O)c2ccccc2c1=O)C(=O)Nc1ccccc1[N+](=O)[O-] (centres undefined)	27.9 µM
CCn1cc(C(=O)Nc2cccc(NC(C)=O)c2)c2cc(OC)c(OC)cc2c1=O	> 79 µM (inactive)
Cc1ccc(Nc2nc(N)[nH]c(=O)c2N=O)cc1	> 79 µM (inactive)
COc1cc2oc3cc(C#Cc4ccc(N)cc4)ccc3c(=O)c2cc1OC	> 79 µM (inactive)
O=c1[nH]nc(-c2ccc(NCCCO)c([N+](=O)[O-])c2)c2ccccc12	> 79 µM (inactive)
O=C(CSc1ccc2nnc(-c3ccc(F)cc3)n2n1)N1CCCc2ccccc21	13.4 µM
Cc1csc2nc(COC(=O)c3ccc(Cl)c([N+](=O)[O-])c3)cc(=O)n12	> 79 µM (inactive)
CC(=O)c1ccc(-c2[nH]c3ccccc3c2CCN2C(=O)c3ccccc3C2=O)cc1	> 79 µM (inactive)
CC(=O)c1ccccc1OCC(O)CN1CCN(CCN2C(=O)c3cccc4cccc(c34)C2=O)CC1 (centres undefined)	> 79 µM (inactive)

SMILES	IC50
Cc1ccc(OCC(=O)Nc2nc(-c3ccccn3)cs2)c(C)c1	16.4 µM
CCOC(=O)c1ccc(NC(=O)c2nc[nH]c2C(=O)NCCCCCNC(=O)OC(C)(C)C)cc1	5.78 µM
O=c1[nH]c2cc(O)ccc2c2ccccc12	> 79 µM (inactive)
COc1ccc(CCn2c(=O)c3cccnc3n(Cc3ccc([N+](=O)[O-])cc3)c2=O)cc1OC	10.1 µM
NC(=O)c1ccsc1NC(=O)COC(=O)Cc1n[nH]c(=O)c2ccccc12	> 79 µM (inactive)
COc1ccc(/C=N/NC(=O)c2sccc2OCc2ccc(F)cc2)cc1OC	15.4 µM
O=C(NCCc1ccc(F)cc1)C(=O)Nc1cc2c3c(c1)CC(=O)N3CCC2	26.9 µM
Cc1ccc(Cn2c(CCNc3nc(-c4ccc(Cl)c([N+](=O)[O-])c4)cs3)nc3cc(C(=O)NCCCO)ccc32)cc1	> 79 µM (inactive)
COc1ccc(OCC(=O)N/N=C/c2cccc3cccnc23)cc1	38.6 µM (inactive)
COC(=O)c1cccc(S(=O)(=O)N(Cc2ccco2)Cc2cc3cc(OC)ccc3[nH]c2=O)c1	> 79 µM (inactive)
COc1ccc(NC(=O)COc2cccc3c2CCNC3=O)cc1	> 79 µM (inactive)
Cc1nc(NC(=O)c2cc3c(C)nn(-c4ccccc4)c3s2)sc1C(=O)Nc1ccccc1	> 79 µM (inactive)
COc1cc(-c2nnc(COC(=O)c3cc(C)nc4ccc(C)cc34)o2)cc(OC)c1OC	15.6 µM
N#CCCSc1ccccc1NC(=O)c1cc(=O)c2ccccc2o1	> 79 µM (inactive)
O=c1c2ccccc2oc2nc(-c3ccco3)n(Cc3ccccc3)c(=O)c12	> 79 µM (inactive)
NC(=O)c1nsc(C(=O)N(c2ccccc2F)C(C(=O)NCc2ccccc2)c2ccc(O)cc2)c1N (centres undefined)	> 79 µM (inactive)
C/C(=N\NC(=O)c1ccccc1-n1cccc1)c1ccccn1	> 79 µM (inactive)
O=C(CN1CCN(S(=O)(=O)c2cc(Cl)ccc2Cl)CC1)c1ccc(O)c(O)c1	> 79 µM (inactive)
COc1ccc(/C=C(\C#N)C(=O)c2c(C)[nH]c3ccccc23)cc1OC	> 79 µM (inactive)
COc1ccc(C(C(=O)NCc2ccccc2)N(Cc2cccs2)C(=O)c2cnccn2)cc1 (centres undefined)	16.1 µM
CCOC(=O)CSc1nnc(CSc2nc3ccccc3c(=O)[nH]2)n1-c1ccccc1	> 79 µM (inactive)
Cn1nc(C(=O)Nc2nc(-c3ccccn3)cs2)c2ccccc2c1=O	39.6 µM (inactive)
